Assays:
KCC2 = test: Surface biotinylation and immunoblot of KCC2 in hippocampal cultures; type: cell-based, rat; settings: for effect on total KCC2 expression: hippocampal cultures
Procedure: Primary cultures of hippocampal neurons were prepared as previously described. Briefly, hippocampi were dissected from embryonic day 18-19 Sprague-Dawley rats of either sex. Tissue was then trypsinized (0.25% v/v), and mechanically dissociated in 1×HBSS (Invitrogen) containing 10 mM HEPES. Neurons were plated at a density of 120×10^3 cells/ml onto 18-mm diameter glass coverslips (Assistent) pre-coated with 50 μg/ml poly-D,L-ornithine (Sigma-Aldrich) in plating medium composed of Minimum Essential Medium (MEM, Sigma-Aldrich) supplemented with horse serum (10% v/v, Invitrogen), L-glutamine (2 mM) and Na+ pyruvate (1 mM) (Invitrogen). After attachment for 3-4 h, cells were incubated in culture medium composed of Neurobasal medium supplemented with B27 (1×), L-glutamine (2 mM), and antibiotics (penicillin 200 units/ml, streptomycin, 200 μg/ml; Invitrogen) for up to 4 weeks at 37° C. in a 5% CO2 humidified incubator. Each week, one fifth of the culture medium volume was renewed.
(§1) For all experiments on hippocampal cultures, neurons were pre-incubated for 2 hours with either DMSO, PCPZ or CLP257 in a CO2 incubator set at 37° C. Drugs were added directly to the culture medium. For electrophysiology experiments, neurons were also recorded in presence of these drugs in the bath. For biochemistry experiments on rat hippocampo-cortical slices, slices were incubated with either DMSO (vehicle), CLP257, PCPZ, WNK463 or sodium orthovanadate for 2 hours in interface chambers set at 37° C. For human tissue experiments, slices were pre-incubated with either DMSO, CLP257 or PCPZ for 2 hours in interface chambers set at 37° C. and then also recorded in presence of these compounds.
Neurons were washed with ice-cold PBS three times, and then incubated with PBS supplemented with 0.5-1 mg/ml EZ-Link Sulfo-NHS-SS-Biotin (Pierce, Rockford, IL, USA) at 4° C. for 30 min under gentle agitation. Biotinylation was stopped by addition of Tris-HCl (50 mM; pH 7.4) and cells lysed in a modified RIPA buffer containing (in mM): Tris-HCl 50 (pH 7.4), NaCl 150, 1% Nonidet P-40, 0.5% DOC, 0.1% SDS, NaF 50, Na3VO4 1 and protease and phosphatase inhibitors (Roche). Lysates were then collected by gently scraping the bottom of each well. After complete homogenization, samples were centrifuged and the supernatant was collected. A small fraction of the lysates was kept for input KCC2 and total protein quantification using BCA kit (Thermo Scientific). Lysates were mixed with a 50% slurry of Neutravidin beads (Thermo Scientific) and rotated overnight at 4° C. […]
Samples were subjected to electrophoresis on polyacrylamide gradient gels (4-12%) and transferred to nitrocellulose membranes. […] Fluorescence was detected using Odyssey infrared imaging system (LI-COR Bioscience). […]

[1] = system: spontaneous interictal-like discharges (IIDs) in slices from mTLE patients; test: Multielectrode array recording of postoperative hippocampal-subicular slices from mTLE patients; type: cell-based, human; settings: for effect on proportion of slices displaying IIDs: p<0.05
Procedure: as §1
Patients or their legal guardians gave informed consent to participate in the study. Patients ([…], 3 males, 4 female, age range: 16-54 years) diagnosed with mesial temporal lobe epilepsy with hippocampal sclerosis underwent multimodal preoperative neurological, neurophyschological and psychiatric evaluations as well as video-electroencephalographic recording, magnetic resonance imaging and fluorodeooxyglugose positron emission tomography. Cortectomies were performed at Sainte-Anne Hospital by neurosurgeons B. Devaux and B. Turak and at Pitié-Salpêtriére Hospital by neurosurgeons S. Clemenceau and B. Mathon. Cortical specimens collected in the operating room were immediately transported in ice-cold (0-4° C.), oxygenated solution (O2/CO2 95/5%), containing (in mM): N-methyl-d-glucamine 93, KCl 2.5, NaH2PO4 1.2, NaHCO3 30, HEPES 20, D-glucose 20, ascorbic acid 5, sodium pyruvate 3, MgSO4 10 and CaCl2 0.5 (300-310 mOsm, pH7.4) and transported within 15 minutes to the laboratory. Transverse hippocampal-subicular slices (400 m thick) were prepared in the same solution using a vibratome (HM650V, Microm). They were maintained for 20-30 minutes at 37° C. and then at room temperature in an interface chamber containing artificial cerebrospinal fluid (ACSF) composed of (in mM): D-glucose 10, KCl 3.5, NaHOC3 26, NaH2PO4 1.25, NaCl 126, CaCl2 1.6 and MgCl2 1.2 (290 mOsm), equilibrated with 5% CO2 in 95% 02.
Multielectrode array recordings were performed using a MEA2100 station (Multi Channel Systems) equipped with a 120-microelectrode array chamber (custom 12×10 layout, 30 μm TiN electrodes spaced 1 mm vertical and 1.5 mm horizontal). Slices were maintained in the recording chamber using a home-made platinum-nylon harp and superfused with pre-warmed (37° C.) oxygenated ACSF at a rate of 6 ml/min. Slices were imaged using a video-microscope table (MEA-VMT1, Multi Channel Systems) in order to register the location of electrodes with respect to the slice. Extracellular signals were acquired at a sampling rate of 10 kHz using Multi Channel Experimenter (Multi Channel Systems) and analyzed offline using homemade software (Matlab, The Mathworks).

[2] = 100 μM CLP257, 2 h, slices from 5 out of 6 patients
[3] = 100 μM CLP257, 2 h, slices from the remaining patient

SMILES | effect on total KCC2 expression (KCC2; 100 μM CLP257, 2 h, p=0.893) | effect on ratio of surface to total KCC2 expression (KCC2; 100 μM CLP257, 2 h, p=0.8) | patients whose slices showed reduced IID frequency ([1]; 100 μM CLP257, 2 h) | change of IID amplitude [1, 2] | reduction of IID frequency [1, 2] | change of IID amplitude [1, 3] | change of IID frequency [1, 3] | effect on proportion of slices displaying IIDs ([1]; 100 μM CLP257, 2 h incubation vs DMSO) | effect on total KCC2 expression (KCC2; 10 μM PCPZ, 2 h, p=0.137) | effect on ratio of surface to total KCC2 expression (KCC2; 10 μM PCPZ, 2 h, p=0.735) | mTLE patients whose slices showed suppressed IIDs ([1]; 10 μM PCPZ, 2 h) | change of IID amplitude ([1]; 10 μM PCPZ, 2 h, group I (5 mTLE patients)) | reduction of IID frequency ([1]; 10 μM PCPZ, 2 h, group I (5 mTLE patients, responders)) | change of IID amplitude ([1]; 10 μM PCPZ, 2 h, group II (2 patients)) | change of IID frequency ([1]; 10 μM PCPZ, 2 h, group II (2 patients, non-responders)) | effect on proportion of slices displaying IIDs ([1]; 10 μM PCPZ, 2 h incubation vs DMSO)
O=C1N=C(N2CCCCN2)S/C1=C\c1ccc(F)cc1O [CLP257, (5Z)-5-[(4-Fluoro-2-hydroxyphenyl)methylene]-2-(tetrahydro-1-(2H)-pyridazinyl)-4(5H)-thiazolone] | no effect | no effect | 5 out of 6 | +134.4% | 96.5±2.31% | −24.5% | +12.6% | significantly reduced | – | – | – | – | – | – | – | –
CN1CCN(CCCN2c3ccccc3Sc3ccc(Cl)cc32)CC1 [PCPZ, prochlorperazine] | – | – | – | – | – | – | – | – | no effect | no effect | 5 out of 7 | +9.0% | 97.55±13.8% | +18.2±4.8% | +25.5±15.9% | significantly reduced

From patent US20240197728A1, “METHODS AND PHARMACEUTICAL COMPOSITIONS FOR TREATING REFRACTORY EPILEPSY” (INSERM (INSTITUT NATIONAL DE LA SANTÉ ET DE LA RECHERCHE …, priority 2021, published 2024)
